Source: patent US7351399B2, “Prodrugs for phosphorus-containing compounds” (Metabasis Therapeutics, Inc., priority 1998, dated 2008)
“Also recorded” adds a separate entry of the source.

Key:
[1] = Delivery of parent compound to liver after intraperitoneal 1.3 (Example U); format: in vivo, rat; details: 1.3 50 mg/kg i.p.
Method: Methods: 1.3 was dissolved in DMSO and administered intraperitoneally to fasted rats at a dose of 50 mg/kg. At various time points following drug administration, animals were anesthetized with halothane. The peritoneal cavity was then opened and a blood sample was obtained from the abdominal vena cava and the liver freeze-clamped and excised. Blood and liver samples were processed as described in Example P and analyzed for 6-Amino-9-neopentyl-8-(2-phosphonofuranyl)purine content as described in Example I.
Results: 6-Amino-9-neopentyl-8-(2-phosphonofuranyl)purine was detected both in plasma and liver following 1.3 administration. Peak levels measured at the earliest time point of 1 hour were 5.8 μM in plasma and 5 nmoles/g tissue in liver. 6-Amino-9-neopentyl-8-(2-phosphonofuranyl)purine persisted in plasma and liver for 4 hours (the last time point measured).

[2] = Stability in plasma (Example C); details: 37° C.; 5-8 hours; HPLC
Method: Methods: Compounds were incubated in plasma at 37° C., and aliqouts removed at appropriate time points over the course of 5-8 hours. The aliquots were extracted with 1.5 volumes of methanol and clarified by centrifugation. Supernatants were then evaporated to dryness and the residues reconstituted with 100 μL of isoionic saline and then analyzed by reverse phase HPLC.

[3] = Chemical stability in isotonic saline and phosphate buffer (Example A); format: physicochemical; details: 100 μM; phosphate buffer pH 7.4; 1 hour; room temperature
Method: Methods: Aliquots of a 10 μg/mL solution of 30.1 in isotonic saline and in 100 mM potassium phosphate buffers at pH 3, 7, and 9 were sampled after 1, 2, 5, and 7 days of incubation at room temperature and analyzed by HPLC. A Beckman Ultrasphere C8 column (4.6×150 mm) was employed and eluted with a gradient from 0.1% v/v trifluoroacetic acid to 80% methanol at a flow rate of 1.0 mL/min. Detection was at 254 nm. Using these conditions, the four isomers of 30.1 were readily separated and quantified. 1.3 was incubated at 100 μM in phosphate buffer at pH 7.4 and analyzed by HPLC as described in Example I following 1 hour of incubation at room temperature.
Thus, prodrugs of the invention are stable under a broad pH range.

[4] = test system: glucose production (gluconeogenesis) in isolated rat hepatocytes; assay: Inhibition of glucose production in rat hepatocytes (Example J); format: cell-based; details: lactate 10 mM / pyruvate 1 mM, 1 hour
Method: Select prodrugs of FBPase inhibitors were tested for inhibition of glucose production in isolated rat hepatocytes.
After a 10 minute equilibration period, lactate and pyruvate were added to 10 mM and 1 mM concentrations, respectively. Addition of gluconeogenic substrates was immediately followed by that of appropriate concentrations of test compound. After 1 hour, an aliquot (0.25 ml) was removed, transferred to an Eppendorf tube and centrifuged. The supernatant (50 μl) was then assayed for glucose content using a Glucose Oxidase kit (Sigma Chemical Co.) as per the manufacturer's instructions.
Results: The following table depicts the inhibitory effect on gluconeogenesis for several prodrugs prepared in the Examples.

[5] = Oral bioavailability by urinary excretion method (Example M); format: in vivo; details: oral gavage 20 or 40 mg/kg parent equivalents; 24 h urine vs i.v. parent ~10 mg/kg; rat
Method: The oral bioavailability of prodrugs of a variety of phosphonic acid FBPase inhibitors was estimated by a urinary excretion method in rat.
Prodrugs of FBPase inhibitors were dissolved in 10% ethanol/90% polyethylene glycol (mw 400) and administered by oral gavage at doses of 20 or 40 mg/kg parent compound equivalents to 6-hour fasted, Sprague Dawley rats (220-240 g). The rats were subsequently placed in metabolic cages and urine was collected for 24 hours. The quantity of parent compound excreted into urine was determined by HPLC analysis. An ODS column eluted with a gradient from potassium phosphate buffer, pH 5.5 to acetonitrile was employed for these measurements. Detection was at 310-325 nm. […] Parent compounds were typically dissolved in dimethyl sulfoxide, and administered via the tail vein in animals that were briefly anesthetized with halothane.
Results for the FBPase inhibitor prodrugs were as follows

[6] = test system: isolated rat hepatocytes; assay: Activation in isolated rat hepatocytes (Example I); details: 100 μM prodrug; fed rat hepatocytes
Method: Methods: Hepatocytes were prepared from fed Sprague-Dawley rats (250-300 g) according to the procedure of Berry and Friend (Berry, M. N., Friend, D. S. J. Cell Biol. 43, 506-520 (1969)) as modified by Groen (Groen, A. K. et al. Eur J. Biochem 122, 87-93 (1982)). Hepatocytes (75 mg wet weight/ml) were incubated in 1 ml Krebs-bicarbonate buffer containing 10 mM glucose, and 1 mg/ml BSA. […] Prodrugs were dissolved in DMSO to yield 10 mM stock solutions, and then diluted into the cell suspension to yield a final concentration of 100 μM. At appropriate time points over the course of one hour, aliquots of the cell suspension were removed and spun through a silicon/mineral oil layer into 10% perchloric acid. The cell extracts in the acid layers were neutralized, and the intracellular prodrug metabolite content analyzed by reverse phase HPLC. An ODS column was used for analysis. It was eluted with a gradient from 10 mM sodium phosphate, pH 5.5 to 75% acetonitrile. Detection was at 310 nm. Peaks on the chromatograms were identified by comparison to the retention times and spectra of standards of prodrug and parent compound.

[7] = Hepatic PMEA-diphosphate and plasma PMEA after intravenous administration (Example P); format: in vivo, rat; details: 10 mg/kg PMEA equivalents i.v.; fasted rats
Method: Methods. […] At appropriate time points, blood and liver samples were obtained and processed as described in Example O. PMEA-diphosphate in liver and PMEA in plasma were analyzed by HPLC as described for araATP and ara-hypoxanthine, respectively, in Example O.

[8] = Renal excretion of PMEA after intravenous administration (Example Q); details: i.v.; for Renal excretion of PMEA, of the administered dose: rats, 24 hour urine
Method: Rats were subsequently caged in metabolic cages and urine collected over a 24 hour period. Urine samples were extracted with 70% methanol/2% acetic acid, vortexed and clarified by centrifugation. Supernatants were analyzed for PMEA content by reverse phase HPLC. A Beckman Ultrasphere ODS (4.6×150 mm) column was used with a gradient from 20 mM potassium phosphate pH 6.2 to 50% acetonitrile.

[9] = test system: human liver microsomes, p450 isozymes (CYP3A4, CYP1A2, CYP2C9); assay: Identification of the p450 isozyme involved in the activation, with isozyme inhibitors (Example F); details: 0-100 μM p450 isozyme inhibitor, 250 μM 30.1
[10] = in vivo; cited from earlier work
[11] = test system: isolated rat hepatocytes; assay: Generation of PMEApp in isolated rat hepatocytes (Example V); format: cell-based; details: Dose 250 μM; 4 h; triplicate
Method: Methods: Hepatocytes were prepared from fed rats and incubated as described in Example I. Test compounds were prepared in DMSO and-diluted to 250 μM in the cell suspensions. Reactions were performed in triplicate. After 4 hours of incubation, aliquots of the suspension were removed and processed as described in Example I. Quantitation of PMEApp was performed by anion exchange HPLC also as described in Example I.

## CC(C)(C)Cn1c(-c2ccc(P3(=O)OC4CC(O)CC(C4)O3)o2)nc2c(N)ncnc21 (single isomer, unassigned) [Compound 1.3, 6-Amino-8-(5′-hydroxyl-1′,3′ cyclohexyl)phosphonofuranyl-9-neopentyl purine]
[1]; fasted rats, 1 hour
  peak level of parent 6-Amino-9-neopentyl-8-(2-phosphonofuranyl)purine in liver: 5 nmoles/g tissue
  peak level of parent 6-Amino-9-neopentyl-8-(2-phosphonofuranyl)purine in plasma: 5.8 µM
[1]; last time point measured
  persistence of parent compound in plasma and liver: 4 h
[2]
  metabolism / degradation in fresh rat plasma: no evidence of metabolism
[3]
  stability in phosphate buffer: fully stable

## Nc1ncnc2c1nc(-c1ccc(P3(=O)OC4CC(O)CC(C4)O3)o1)n2CCc1ccccc1 (centres unmarked) [Compound 1.1, 6-Amino-8-(5′-hydroxyl-1′,3′-cyclohexyl)phosphonofuranyl-9-phenethyl purine]
[2]
  metabolism / degradation in fresh rat plasma: not degraded; also recorded: no evidence of metabolism

## CC(C)(C)Cn1c(-c2ccc(P3(=O)OC4CC(O)CC(C4)O3)o2)nc2c(N)ncnc21 (centres unmarked) [Compound 1.2, 6-Amino-8-(5′-hydroxyl-1′,3′-cyclohexyl)phosphonofuranyl-9-neopentyl purine]
[2]
  metabolism / degradation in fresh rat plasma: not degraded

## Cc1c(Cl)cc2c(nc(-c3ccc(P4(=O)OC5CC(O)CC(C5)O4)o3)n2CC2CC2)c1C (centres unmarked) [Compound 1.4, 6-Chloro-4,5-dimethyl-1-cyclopropylmethyl-2-[1′-hydroxy-3′,5′-cyclohexylphosphono-5-furanyl]benzimidazole]
[4]
  % inhibition @ 100 μM: 36%

## CC(=O)N[C@@H]1COP(=O)(c2ccc(-c3nc4ccc(Cl)cc4n3CC(C)C)o2)O[C@H]1c1ccc([N+](=O)[O-])cc1 (stereo partly drawn) [Compound 2.4, 6-Chloro-1-isobutyl-2-{5-[1S-(4-nitrophenyl)-2R-acetylamino-propan-1,3-yl]phosphono-2-furanyl}benzimidazole]
[5]
  % OBAV Prodrug: 8.7%
[4]
  % inhibition @ 100 μM: 40%

## CC(C)Cn1c(-c2ccc(P3(=O)OCCC(c4ccccn4)O3)o2)nc2ccc(Cl)cc21 (centres unmarked) [Compound 4.2, 6-Chloro-1-isobutyl-2-{5-[1′-(2-pyridyl)-propan-1′,3′-yl]phosphono-2-furanyl}benzimidazole]
[5]
  % OBAV Prodrug: 8.5%
[4]
  % inhibition @ 100 μM: 68%

## CC(C)Cn1c(-c2ccc(P3(=O)OCCC(c4ccncc4)O3)o2)nc2ccc(Cl)cc21 (centres unmarked) [Compound 4.3, 6-Chloro-1-isobutyl-2-{5-[1′-(4-pyridyl)-propan-1′,3′-yl]phosphono-2-furanyl}benzimidazole]
[5]
  % OBAV Prodrug: 11.6%
[4]
  % inhibition @ 100 μM: 55%

## CC(C)Cn1c(-c2ccc(P3(=O)OCCC(c4ccc(F)cc4)O3)o2)nc2ccc(Cl)cc21 (centres unmarked) [Compound 5.2, 6-Chloro-1-isobutyl-2-{5-[1′-(4-fluorophenyl)-propan-1′,3′-yl]phosphono-2-furanyl}benzimidazole]
[5]
  % OBAV Prodrug: 2.4%

## COc1ccc(C2CCOP(=O)(c3ccc(-c4nc5ccc(Cl)cc5n4CC(C)C)o3)O2)cc1Br (centres unmarked) [Compound 6.1, 6-Chloro-1-isobutyl-2-{5-[1′-(3-bromo-4-methoxyphenyl)-propan-1′,3′-yl]phosphono-2-furanyl}benzimidazole]
[4]
  % inhibition @ 100 μM: 11%

## CC(=O)OCC1COP(=O)(c2ccc(-c3nc4ccc(Cl)cc4n3CC(C)C)o2)OC1 (centres unmarked) [Compound 7.2, 6-Chloro-1-isobutyl-2-{5-[2′-(acetoxymethyl)-propan-1′,3′-yl]phosphono-2-furanyl}benzimidazole]
[6]
  peak intrahepatocyte levels of parent compound: ~500 nmoles/g cells
[5]
  % OBAV Prodrug: 12.5%
[4]
  IC50: 90 µM

## COC(=O)OCC1COP(=O)(c2ccc(-c3nc4ccc(Cl)cc4n3CC(C)C)o2)OC1 (centres unmarked) [Compound 7.3, 6-Chloro-1-isobutyl-2-{5-[2′-(methoxycarbonytoxymethyl)-propan-1′,3′-yl]phosphono-2-furanyl}benzimidazole]
[5]
  % OBAV Prodrug: 14.1%
[4]
  % inhibition @ 100 μM: 61%

## CCc1cc(F)c(N)c2nc(-c3ccc(P4(=O)OCC(COC(C)=O)CO4)o3)n(CC(C)C)c12 (centres unmarked) [Compound 7.4, 4-Amino-5-fluoro-7-ethyl-1-isobutyl-2-{5-[2′-(acetoxymethyl)-propan-1′,3′-yl]phosphono-2-furanyl}benzimidazole]
[4]
  IC50: 25 µM

## Nc1ncnc2c1ncn2CCOCP1(=O)OCCC(c2ccncc2)O1 (centres unmarked) [Compound 28.4, 9-[2-(1-(4-Pyridyl)-1,3-propylphosphonomethoxy)ethyl]adenine]
[7]
  PMEA-diphosphate levels in liver: readily detectable levels; also recorded: high PMEA disphosphate levels
[8]
  PMEA in the blood or urine: no detectable PMEA

## CC(=O)N1CCN(c2ccc(OCC3COC(Cn4ccnc4)(c4ccc(Cl)cc4Cl)O3)cc2)CC1 (centres unmarked) [Ketoconazole]
[9]
  inhibition of the formation of ara-AMP from 30.1: dose-dependent

## Nc1ncnc2c1ncn2[C@@H]1O[C@H](CO)[C@@H](O)[C@@H]1O [araA, 9-b-D-arabinofuranosyladenine]
[10]
  oral bioavailability: low oral bioavailability

## CC(C)(C)C(=O)OCOP(=O)(COCCn1cnc2c(N)ncnc21)OCOC(=O)C(C)(C)C [bisPOM-PMEA, reference compound]
[7]
  PMEA-diphosphate levels in liver: readily detectable levels
[11]
  PMEApp: 200 ± 33 nmol/g
[8]
  Renal excretion of PMEA, of the administered dose: 54%
[8]; listed as bis POM prodrug of PMEA
  Renal excretion of PMEA, of the administered dose: high levels of PMEA in the urine

## Cc1nc2c([nH]1)c(=O)n(C)c(=O)n2Cc1ccco1 [furafylline]
[9]
  inhibition of the formation of ara-AMP from 30.1: no significant inhibition

## Nc1ccc(S(=O)(=O)Nc2ccnn2-c2ccccc2)cc1 [sulfaphenazole]
[9]
  inhibition of the formation of ara-AMP from 30.1: no significant inhibition
